“And” between values parts separate entries of the source, which are not always exact repeats. Equal entries are not always repeated. Where two headings read alike, the source gives them in different places.
How the values were obtained:
MUTE = molecular target: T1, MUTE (Arabidopsis thaliana, UniProt Q9M8K6); assay: BLI direct binding; design: species or system A. thaliana
T1 construct: MUTE (1-202); made in house; host or cells: E. coli BL21
From the text: (§1) A. thaliana SCRM (1-494), ΔNSPCH (98-364), MUTE (1-202), ΔNFAMA (190-414), MUTEΔC (1-114), MUTER133A_R134A, MUTEE162A_E163A, MUTER133A_R134A_E162A_E163A, SCRM-ACTL (405-494), MUTE-ACTL (114-202), SPCH-ACTL (285-364), FAMA-ACTL (306-414), MUTE_ACTLR133A_R134A, MUTE_ACTLE162A_E163A, MUTE_ACTLR133A_R134A_E162A_E163A were cloned into pGEX-4T-1 vector with an N-terminal GST tag and a thrombin cleavage sequence. For protein expression, the constructs were transformed into E. coli strain BL21. For each transformant, a single colony was selected and incubated in 10 ml LB liquid media. The overnight-incubated E. coli suspensions were transferred to 1 L LB medium and incubated at 37 °C for around 2 h until the OD600 reached 0.4–0.6. The isopropyl β-D-1-thiogalactopyranoside ([…] of final concentration) was added to the cultures and the strains were incubated at 22 °C for a further 18 h. GST-fused proteins were purified using glutathione agarose resin. The soluble portion of the cell lysate was loaded onto a GST-Sepharose column. Nonspecifically bound proteins were removed by washing the column with 20 mM Tris pH 8.0, 200 mM NaCl. The bound GST-fused protein was eluted with 10 mm glutathione and 20 mM Tris pH 8.0, 200 mM NaCl. The GST-fused proteins were exchanged with phosphate-buffered saline buffer, and then the solution was treated with 50 μg of thrombin for 10–12 h at 16 ^οC. The GST portion of the protein was cleaved during thrombin digestion, and then the whole solution was reloaded onto the glutathione S-transferase column to obtain pure protein. The purified proteins were further purified by gel filtration on a Superdex-200 (GE) column using fast protein liquid chromatography and phosphate buffer (pH 7.2) as the eluent. The purity of the protein was checked by SDS-PAGE. For detailed lists of oligo DNA and plasmid information, see Supplementary Tables 5, 6, respectively.
(§2) The binding affinities of SCRM to MUTE / MUTER133A_R134A / MUTEE162A_E163A / MUTER133A_R134A_E162A_E163A in presence and absence of Stomidazolone (3) and its analogues (AYSJ1059 (5) and AYSJ1061 (6)), and Stomidazolone / AYSJ1059 / AYSJ1061 interactions with GST-tagged SCRM, MUTE, SPCH, FAMA, MUTE ΔACTL, MUTE_ACTL, SCRM_ACTL, SPCH_ACTL and FAMA_ACTL, MUTER133A_134A, MUTEE162A_E163A, MUTER133A_R134A_E162A_E163A were measured using the Octet Red96 system (ForteBio, Pall Life Sciences) following the manufacturer’s protocols. The optical probes coated with anti-GST were first loaded with 500 nM GST tagged proteins before kinetic binding analyses. The experiment was performed in 96-well plates maintained at 30 °C. Each well was loaded with 200 μL reaction volume for the experiment. The binding buffer used in these experiments contained 1× PBS supplemented with 2% DMSO, 0.02% Tween20. […] There was no binding of the analytes to the unloaded probes as shown by the control wells. Binding kinetics to all seven concentrations of the analytes were measured simultaneously using default parameters on the instrument. The data were analyzed using the Octet data analysis software. The association and dissociation curves were fit with the 1:1 homogeneous ligand model. The kobs (observed rate constant) values were used to calculate Kd, with steady-state analysis of the direct binding. See Supplementary Table 3 for details.

SPCH = molecular target: T2, SPCH (Arabidopsis thaliana, UniProt Q700C7); assay: BLI direct binding; design: species or system A. thaliana
T2 construct: ΔNSPCH (98-364); made in house; host or cells: E. coli BL21
From the text: as §1, §2

[1] = SPCH, Conc. (µM) 3.12, rep-1, rep-2
[2] = SPCH, Conc. (µM) 6.25, rep-1, rep-2
[3] = SPCH, Conc. (µM) 12.5, rep-1, rep-2
[4] = SPCH, Conc. (µM) 50, rep-1, rep-2
[5] = SPCH, Conc. (µM) 100, rep-1, rep-2
[6] = SPCH, Conc. (µM) 200, rep-1, rep-2

T2 sequence (Q700C7 98-364): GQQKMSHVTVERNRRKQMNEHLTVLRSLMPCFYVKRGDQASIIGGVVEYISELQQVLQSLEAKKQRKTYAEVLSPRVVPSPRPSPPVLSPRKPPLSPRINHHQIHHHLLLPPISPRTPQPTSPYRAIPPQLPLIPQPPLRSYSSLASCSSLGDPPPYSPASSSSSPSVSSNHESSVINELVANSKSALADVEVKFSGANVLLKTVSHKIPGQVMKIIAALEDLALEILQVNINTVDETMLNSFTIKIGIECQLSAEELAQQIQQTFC
T1 sequence (Q9M8K6 whole entry): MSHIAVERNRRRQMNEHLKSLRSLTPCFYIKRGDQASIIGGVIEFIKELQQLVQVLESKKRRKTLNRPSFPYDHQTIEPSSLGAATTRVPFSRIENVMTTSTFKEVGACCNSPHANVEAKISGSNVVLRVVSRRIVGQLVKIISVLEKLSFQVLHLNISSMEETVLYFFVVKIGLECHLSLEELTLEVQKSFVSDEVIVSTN

## O=C1C(c2ccccc2)=NC(NS(=O)(=O)c2ccccc2)(c2ccccc2)N1S(=O)(=O)c1ccccc1 (stereo not shown) [Stomidazolone]
MUTE; BLI steady state, MUTE, read-out: KD (SS)
  Kd: 0.0089 ± 0.0012 mM
MUTE; MUTE loaded on Anti-GST sensor, fit per sensor, Stomid Conc. 200-3.12, rep-1, rep-2
  kdis: 0.0392 s⁻¹ and 0.0391 s⁻¹
MUTE; MUTE loaded on Anti-GST sensor, fit per sensor, Stomid Conc. (mM) 200-3.12, rep-1, rep-2, read-out: KD
  Kd: 0.00896 mM and 0.00929 mM and 0.00909 mM and 0.0092 mM and 0.00905 mM and 0.00911 mM and 0.0091 mM and 0.00897 mM and 0.00907 mM and 0.00902 mM and 0.00906 mM
MUTE; MUTE, Conc. 3.12, rep-1, rep-2
  RMax: 0.125 and 0.165
  Req/Rmax(%): 100%
  Response: 0.1223 and 0.1634
MUTE; MUTE, Conc. 6.25, rep-1, rep-2
  RMax: 0.275 and 0.215
  Req/Rmax(%): 97% and 100%
  Response: 0.2732 and 0.2105
MUTE; MUTE, Conc. 12.5, rep-1, rep-2
  RMax: 0.425 and 0.395
  Response: 0.4108 and 0.3912
MUTE; MUTE, Conc. 25, rep-1, rep-2
  RMax: 0.525 and 0.47
  Response: 0.5211 and 0.4645
MUTE; MUTE, Conc. 50, rep-1, rep-2
  RMax: 0.55 and 0.585
  Req/Rmax(%): 89%
  Response: 0.5313 and 0.5832
MUTE; MUTE, Conc. 100, rep-1, rep-2
  RMax: 0.605 and 0.635
  Response: 0.5932 and 0.6302
MUTE; MUTE, Conc. 200, rep-1, rep-2
  RMax: 0.615 and 0.645
  Req/Rmax(%): 98%
  Response: 0.606 and 0.634
MUTE; read-out: kdis(1/s), MUTE loaded on Anti-GST sensor, fit per sensor, Stomid Conc. 200-3.12, rep-1, rep-2
  koff: 0.0393 s⁻¹
MUTE; read-out: kon(1/Ms), MUTE loaded on Anti-GST sensor, fit per sensor, Stomid Conc. 200-3.12, rep-1, rep-2
  kon: 4380 M⁻¹ s⁻¹
SPCH; BLI steady state, SPCH, read-out: KD (SS)
  Kd: 85.2 ± 6.8 µM
SPCH; BLI, SPCH, read-out: KD
  Kd: 75.6 ± 0.7 µM
SPCH; SPCH loaded on Anti-GST sensor, fit per sensor, Stomid Conc. (mM) 200-3.12, rep-1, rep-2
  kdis: 0.319 s⁻¹ and 0.323 s⁻¹ and 0.32 s⁻¹ and 0.325 s⁻¹ and 0.33 s⁻¹ and 0.326 s⁻¹
SPCH; SPCH loaded on Anti-GST sensor, fit per sensor, Stomid Conc. (µM) 200-3.12, rep-1, rep-2
  kon: 4280 M⁻¹ s⁻¹ and 4310 M⁻¹ s⁻¹ and 4320 M⁻¹ s⁻¹ and 4400 M⁻¹ s⁻¹ and 4290 M⁻¹ s⁻¹ and 4340 M⁻¹ s⁻¹ and 4360 M⁻¹ s⁻¹
SPCH; SPCH loaded on Anti-GST sensor, fit per sensor, Stomid Conc. (µM) 200-3.12, rep-1, rep-2, read-out: KD
  Kd: 75.4 µM and 76.8 µM and 74.1 µM and 73.1 µM and 74.8 µM and 72.6 µM and 75.2 µM and 76.7 µM and 76.9 µM and 74.4 µM
SPCH; [1]
  RMax: 0.03 and 0.0213
  Req/Rmax(%): 100%
  Response: 0.0312 and 0.0213
SPCH; [2]
  RMax: 0.062 and 0.0321
  Req/Rmax(%): 97% and 100%
  Response: 0.0608 and 0.0321
SPCH; [3]
  RMax: 0.067 and 0.0781
  Response: 0.065 and 0.0781
SPCH; [4]
  RMax: 0.135 and 0.1621
  Req/Rmax(%): 89%
  Response: 0.1334 and 0.1621
SPCH; [5]
  RMax: 0.235 and 0.2711
  Response: 0.233 and 0.2711
SPCH; [6]
  RMax: 0.335 and 0.323
  Req/Rmax(%): 98%
  Response: 0.3311 and 0.323
SPCH; read-out: kdis(1/s), SPCH loaded on Anti-GST sensor, fit per sensor, Stomid Conc. (mM) 200-3.12, rep-1, rep-2
  koff: 0.329 s⁻¹
SPCH; read-out: kon(1/Ms), SPCH loaded on Anti-GST sensor, fit per sensor, Stomid Conc. (mM) 200-3.12, rep-1, rep-2
  kon: 4370 M⁻¹ s⁻¹

Source: article PMC11500415, “Chemical inhibition of stomatal differentiation by perturbation of the master-regulatory bHLH heterodimer via an ACT-Like domain” (Nature Communications, 2024)
